The values that follow come from US10077261B2, “Imidazolin-5-one derivative useful as FASN inhibitors for the treatment of cancer” (Janssen Pharmaceutica NV, priority 2012, dated 2018).

SMILES strings stand for the structures.

The test concerns the target T1, hFASN enzyme (full length) (Homo sapiens, UniProt P49327).
T1 construct: 10 μL hFASN enzyme (full length, 300 ng, purified in house); made in house
In words: Fatty Acid Synthase (FASN) inhibition scintillation proximity assay. Format: biochemical. The conditions noted are these: for inhibition at 10 µM: read-out: Human FASN % inhibition @ 10 μM, 10 μM test compound; for IC50: read-out: Human FASN pIC50 (converted). The method, boiled down: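 Scintillation proximity format: in-house full-length enzyme, 300 ng per well, pH 7.5 phosphate/DTT buffer, ³H-acetyl-CoA and malonyl-CoA. Emission counted on LEADseeker at 610 nm at least 24 h after stopping.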
(Scintillation proximity formats need no separation of bound from free tracer.)

Usually inhibition stands for the relative decrease from the control value, in per cent.

T1 sequence (P49327 whole entry): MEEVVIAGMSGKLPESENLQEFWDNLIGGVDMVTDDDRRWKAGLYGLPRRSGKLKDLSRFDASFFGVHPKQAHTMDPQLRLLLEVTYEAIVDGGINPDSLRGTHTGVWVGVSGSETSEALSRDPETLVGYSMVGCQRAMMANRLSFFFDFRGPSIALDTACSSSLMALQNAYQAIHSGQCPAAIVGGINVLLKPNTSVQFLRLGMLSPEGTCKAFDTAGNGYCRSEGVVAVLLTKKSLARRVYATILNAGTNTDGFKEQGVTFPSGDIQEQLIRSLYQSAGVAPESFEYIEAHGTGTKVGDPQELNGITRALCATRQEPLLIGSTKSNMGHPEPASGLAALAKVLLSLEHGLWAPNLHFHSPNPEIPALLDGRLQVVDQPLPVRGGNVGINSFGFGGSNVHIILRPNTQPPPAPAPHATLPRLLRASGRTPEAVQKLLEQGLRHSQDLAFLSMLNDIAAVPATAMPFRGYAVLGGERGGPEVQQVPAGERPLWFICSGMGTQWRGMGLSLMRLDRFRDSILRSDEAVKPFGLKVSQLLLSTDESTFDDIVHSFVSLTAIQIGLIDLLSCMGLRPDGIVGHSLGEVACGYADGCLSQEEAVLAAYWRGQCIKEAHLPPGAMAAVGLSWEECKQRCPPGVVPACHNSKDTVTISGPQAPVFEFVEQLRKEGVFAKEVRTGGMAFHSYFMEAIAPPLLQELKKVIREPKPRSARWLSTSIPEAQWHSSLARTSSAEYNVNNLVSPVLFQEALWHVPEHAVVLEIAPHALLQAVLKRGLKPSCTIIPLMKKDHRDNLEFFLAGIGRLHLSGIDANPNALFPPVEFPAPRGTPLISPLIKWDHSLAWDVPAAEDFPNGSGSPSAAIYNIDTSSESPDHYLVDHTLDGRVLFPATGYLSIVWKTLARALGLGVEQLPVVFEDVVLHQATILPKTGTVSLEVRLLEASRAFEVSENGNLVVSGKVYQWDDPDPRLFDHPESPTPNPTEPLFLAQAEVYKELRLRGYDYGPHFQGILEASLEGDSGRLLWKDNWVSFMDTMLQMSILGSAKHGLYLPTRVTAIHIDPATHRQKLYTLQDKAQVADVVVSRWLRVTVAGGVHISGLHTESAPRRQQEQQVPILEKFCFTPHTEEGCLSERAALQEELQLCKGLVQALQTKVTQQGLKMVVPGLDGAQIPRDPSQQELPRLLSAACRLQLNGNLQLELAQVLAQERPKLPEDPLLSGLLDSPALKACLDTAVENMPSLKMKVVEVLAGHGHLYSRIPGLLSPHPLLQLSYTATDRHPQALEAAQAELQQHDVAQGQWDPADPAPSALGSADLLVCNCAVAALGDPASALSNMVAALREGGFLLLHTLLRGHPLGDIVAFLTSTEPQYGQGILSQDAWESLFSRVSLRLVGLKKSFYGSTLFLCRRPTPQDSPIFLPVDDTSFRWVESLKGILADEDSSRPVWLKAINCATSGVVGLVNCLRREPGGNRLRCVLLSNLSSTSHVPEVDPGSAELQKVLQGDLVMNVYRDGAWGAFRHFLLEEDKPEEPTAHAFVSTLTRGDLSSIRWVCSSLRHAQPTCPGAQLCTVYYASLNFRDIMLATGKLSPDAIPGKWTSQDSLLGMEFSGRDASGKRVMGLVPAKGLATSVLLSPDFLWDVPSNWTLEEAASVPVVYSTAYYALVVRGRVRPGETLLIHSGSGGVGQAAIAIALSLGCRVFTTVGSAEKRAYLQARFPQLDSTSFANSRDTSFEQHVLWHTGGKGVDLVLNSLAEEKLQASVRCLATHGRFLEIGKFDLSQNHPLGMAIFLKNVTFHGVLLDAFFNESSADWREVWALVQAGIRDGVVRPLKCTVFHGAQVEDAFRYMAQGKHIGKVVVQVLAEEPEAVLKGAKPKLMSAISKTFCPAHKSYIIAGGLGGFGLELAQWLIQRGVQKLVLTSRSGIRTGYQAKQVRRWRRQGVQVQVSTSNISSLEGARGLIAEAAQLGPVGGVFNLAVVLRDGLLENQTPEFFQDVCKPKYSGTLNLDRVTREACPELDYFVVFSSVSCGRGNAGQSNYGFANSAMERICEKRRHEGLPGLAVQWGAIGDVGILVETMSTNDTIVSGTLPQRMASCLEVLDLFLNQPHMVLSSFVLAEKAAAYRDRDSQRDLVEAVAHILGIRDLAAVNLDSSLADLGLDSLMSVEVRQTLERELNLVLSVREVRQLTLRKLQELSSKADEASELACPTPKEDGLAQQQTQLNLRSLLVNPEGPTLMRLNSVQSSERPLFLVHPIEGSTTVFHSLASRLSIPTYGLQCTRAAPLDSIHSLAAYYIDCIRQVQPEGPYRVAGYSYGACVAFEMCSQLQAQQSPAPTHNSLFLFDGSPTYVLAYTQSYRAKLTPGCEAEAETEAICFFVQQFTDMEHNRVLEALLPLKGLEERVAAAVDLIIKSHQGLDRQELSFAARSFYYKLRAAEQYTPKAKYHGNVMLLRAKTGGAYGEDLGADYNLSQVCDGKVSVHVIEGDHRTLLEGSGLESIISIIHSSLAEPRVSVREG

On to `CN(C)c1cccc(-c2ccc(C3=NC4(CC4)C(=O)N3C[C@@H]3CCN(C(=O)C4CC4)C3)cc2)c1` [compound 145, 6-{[(3R)-1-(Cyclopropylcarbonyl)pyrrolidin-3-yl]methyl}-5-[3′-(dimethylamino)biphenyl-4-yl]-4,6-diazaspiro[2.4]hept-4-en-7-one], for which the inhibition at 10 µM came to 106% and the IC50 was 398 nM.

Take `O=C(C1CC1)N1CC[C@@H](CN2C(=O)C3(CC3)N=C2c2ccc(-c3cccc(OC(F)(F)F)c3)cc2)C1` [compound 146, 6-{[(3R)-1-(Cyclopropylcarbonyl)pyrrolidin-3-yl]methyl}-5-[3′-(trifluoromethoxy)biphenyl-4-yl]-4,6-diazaspiro[2.4]hept-4-en-7-one]: the inhibition at 10 µM was found to be 38% and the IC50 is greater than 10000 nM.

In the case of `CC(=O)N1CCC2(CC1)N=C(c1ccc(-c3ccc4[nH]ccc4c3)cc1)N(C[C@@H]1CCN(C(=O)C3CC3)C1)C2=O` [compound 147, (R)-2-(4-(1H-Indol-5-yl)phenyl)-8-acetyl-3-((1-(cyclopropanecarbonyl)pyrrolidin-3-yl)methyl)-1,3,8-triazaspiro[4.5]dec-1-en-4-one], the inhibition at 10 µM was found to be 89.5% and the IC50 was 70.8 nM.

Consider `CC(=O)N1CCC2(CC1)N=C(c1ccc(-c3ccc4[nH]ncc4c3)cc1)N(C[C@@H]1CCN(C(=O)C3CC3)C1)C2=O` [compound 148, 8-Acetyl-3-{[(3R)-1-(cyclopropylcarbonyl)pyrrolidin-3-yl]methyl}-2-[4-(1H-indazol-5-yl)phenyl]-1,3,8-triazaspiro[4.5]dec-1-en-4-one], for which the inhibition at 10 µM is 105% and the IC50 was 302 nM.

As to `CC(=O)N1CCC2(CC1)N=C(c1ccc(-c3ccc4occc4c3)cc1)N(C[C@@H]1CCN(C(=O)C3CC3)C1)C2=O` [compound 150, 8-Acetyl-2-[4-(1-benzofuran-5-yl)phenyl]-3-{[(3R)-1-(cyclopropylcarbonyl)pyrrolidin-3-yl]methyl}-1,3,8-triazaspiro[4.5]dec-1-en-4-one], the inhibition at 10 µM was 113% and the IC50 is 105 nM.

With `CC(C)C(=O)N1CCC2(CC1)N=C(c1ccc(-c3ccc4occc4c3)cc1)N(C[C@@H]1CCN(C(=O)C3CC3)C1)C2=O` [compound 151, 2-[4-(1-Benzofuran-5-yl)phenyl]-3-{[(3R)-1-(cyclopropylcarbonyl)pyrrolidin-3-yl]methyl}-8-(2-methylpropanoyl)-1,3,8-triazaspiro[4.5]dec-1-en-4-one], the inhibition at 10 µM stood at 112% and the IC50 is 129 nM.

`O=C(C1CC1)N1CCC2(CC1)N=C(c1ccc(-c3ccc4occc4c3)cc1)N(C[C@@H]1CCN(C(=O)C3CC3)C1)C2=O` [compound 152, 2-[4-(1-Benzofuran-5-yl)phenyl]-8-(cyclopropylcarbonyl)-3-{[(3R)-1-(cyclopropylcarbonyl)pyrrolidin-3-yl]methyl}-1,3,8-triazaspiro[4.5]dec-1-en-4-one]: the inhibition at 10 µM is 123% and the IC50 was 123 nM.

Take `CN(C)CC(=O)N1CCC2(CC1)N=C(c1ccc(-c3ccc4occc4c3)cc1)N(C[C@@H]1CCN(C(=O)C3CC3)C1)C2=O` [compound 153, 2-[4-(1-Benzofuran-5-yl)phenyl]-3-{[(3R)-1-(cyclopropylcarbonyl)pyrrolidin-3-yl]methyl}-8-(N,N-dimethylglycyl)-1,3,8-triazaspiro[4.5]dec-1-en-4-one]: the inhibition at 10 µM came out at 116% and the IC50 is 105 nM.

Regarding `CN(C)CC(=O)N1CCC2(CC1)N=C(c1ccc(-c3ccc4cnccc4c3)cc1)N(CC1CN(C(=O)C3CC3)C1)C2=O` [compound 154, 3-{[1-(Cyclopropylcarbonyl)azetidin-3-yl]methyl}-8-(N,N-dimethylglycyl)-2-(4-isoquinolin-6-ylphenyl)-1,3,8-triazaspiro[4.5]dec-1-en-4-one], the inhibition at 10 µM amounted to 109% and the IC50 is 269 nM.

In the case of `Cc1cc2cc(-c3ccc(C4=NC5(CCNCC5)C(=O)N4C[C@@H]4CCN(C(=O)C5CC5)C4)cc3)ccc2o1` [compound 155], the inhibition at 10 µM was 96.5% and the IC50 is 776 nM.

Regarding `COc1cc(-c2ccc3occc3c2)ccc1C1=NC2(CCCC2)C(=O)N1C[C@@H]1CCN(C(=O)C2CC2)C1` [compound 156, 2-[4-(1-Benzofuran-5-yl)-2-methoxyphenyl]-3-{[(3R)-1-(cyclopropylcarbonyl)pyrrolidin-3-yl]methyl}-1,3-diazaspiro[4.4]non-1-en-4-one], the inhibition at 10 µM stood at 108% and the IC50 was 191 nM.

Consider `COc1cc(-c2ccc3[nH]ccc3c2)ccc1C1=NC2(CCCC2)C(=O)N1C[C@@H]1CCN(C(=O)C2CC2)C1` [compound 157, 3-{[(3R)-1-(Cyclopropylcarbonyl)pyrrolidin-3-yl]methyl}-2-[4-(1H-indol-5-yl)-2-methoxyphenyl]-1,3-diazaspiro[4.4]non-1-en-4-one], for which the inhibition at 10 µM amounted to 112% and the IC50 is 67.6 nM.

Consider `O=C(C1CC1)N1CCC(CN2C(=O)C3(CC3)N=C2c2ccc(-c3cccc(F)c3)cc2)CC1` [compound 158, 6-{[1-(Cyclopropylcarbonyl)piperidin-4-yl]methyl}-5-(3′-fluorobiphenyl-4-yl)-4,6-diazaspiro[2.4]hept-4-en-7-one], for which the inhibition at 10 µM is 33% and the IC50 is greater than 10000 nM.

Turning to `O=C(C1CC1)N1CC[C@@H](CN2C(=O)C3(CCN(CCO)CC3)N=C2c2ccc(-c3ccc4cnccc4c3)cc2)C1` [compound 159, 3-{[(3R)-1-(Cyclopropylcarbonyl)pyrrolidin-3-yl]methyl}-8-(2-hydroxyethyl)-2-(4-isoquinolin-6-ylphenyl)-1,3,8-triazaspiro[4.5]dec-1-en-4-one], the inhibition at 10 µM turned out to be 116% and the IC50 was 79.4 nM.

Turning to `CC(=O)N1CCC2(CC1)N=C(c1ccc(-c3ccc4c(c3)CCN(C(C)=O)C4)cc1)N(C[C@@H]1CCN(C(=O)C3CC3)C1)C2=O` [compound 160], the inhibition at 10 µM came out at 29.3% and the IC50 was greater than 10000 nM.

On to `CC(=O)N1CCC2(CC1)N=C(c1ccc(C3=CC4CCN(C(C)=O)CC4C=C3)cc1)N(C[C@@H]1CCN(C(=O)C3CC3)C1)C2=O` (stereo partly drawn) [compound 161, 8-Acetyl-2-[4-(2-acetyl-1,2,3,4,4a,8a-hexahydroisoquinolin-6-yl)phenyl]-3-{[(3R)-1-(cyclopropylcarbonyl)pyrrolidin-3-yl]methyl}-1,3,8-triazaspiro[4.5]dec-1-en-4-one], for which the inhibition at 10 µM was 16% and the IC50 was greater than 10000 nM.

Regarding `CC(C)N1CCC2(CC1)N=C(c1ccc(-c3ccc4cnccc4c3)cc1)N(C[C@@H]1CCN(C(=O)C3CC3)C1)C2=O` [compound 163], the inhibition at 10 µM worked out at 110% and the IC50 was 229 nM.

For the compound `CN(C)CC(=O)N1CCC2(CC1)N=C(c1ccc(-c3ccc4[nH]ccc4c3)cc1)N(C[C@@H]1CCN(C(=O)C3CC3)C1)C2=O` [compound 164, 3-{[(3R)-1-(Cyclopropylcarbonyl)pyrrolidin-3-yl]methyl}-8-(N,N-dimethylflycyl)-2-[4-(1H-indol-5-yl)phenyl]-1,3,8-triazaspiro[4.5]dec-1-en-4-one], the inhibition at 10 µM is 115% and the IC50 is 39.8 nM.

On to `CN(C)CC(=O)N1CCC2(CC1)N=C(c1ccc(-c3ccc4[nH]ncc4c3)cc1)N(C[C@@H]1CCN(C(=O)C3CC3)C1)C2=O` [compound 165, 3-{[(3R)-1-(Cyclopropylcarbonyl)pyrrolidin-3-yl]methyl}-8-(N,N-dimethylglycyl)-2-[4-(1H-indazol-5-yl)phenyl]-1,3,8-triazaspiro[4.5]dec-1-en-4-one], for which the inhibition at 10 µM stood at 108% and the IC50 was 229 nM.

On to `CC(C)N1CCC2(CC1)N=C(c1ccc(-c3ccc4occc4c3)cc1)N(CC1CN(C(=O)C3CC3)C1)C2=O` [compound 166, 2-[4-(1-Benzofuran-5-yl)phenyl]-3-{[1-(cyclopropylcarbonyl)azetidin-3-yl]methyl}-8-(1-methylethyl)-1,3,8-triazaspiro[4.5]dec-1-en-4-one], for which the inhibition at 10 µM is 71.6% and the IC50 is 3390 nM.

On to `CC(C)N1CCC2(CC1)N=C(c1ccc(-c3ccc4occc4c3)cc1)N(C[C@@H]1CCN(C(=O)C3CC3)C1)C2=O` [compound 167, 2-[4-(1-Benzofuran-5-yl)phenyl]-3-{[(3R)-1-(cyclopropylcarbonyl)pyrrolidin-3-yl]methyl}-8-(1-methylethyl)-1,3,8-triazaspiro[4.5]dec-1-en-4-one], for which the inhibition at 10 µM was 96.4% and the IC50 was 525 nM.

On to `O=C(C1CC1)N1CC[C@@H](CN2C(=O)C3(CCN(CCO)CC3)N=C2c2ccc(-c3ccc4occc4c3)cc2)C1` [compound 168, 2-[4-(1-Benzofuran-5-yl)phenyl]-3-{[(3R)-1-(cyclopropylcarbonyl)pyrrolidin-3-yl]methyl}-8-(2-hydroxyethyl)-1,3,8-triazaspiro[4.5]dec-1-en-4-one], for which the inhibition at 10 µM stood at 108% and the IC50 is 145 nM.

In the case of `CC(C)N1CCC2(CC1)N=C(c1ccc(-c3ccc4c(cnn4C)c3)cc1)N(CC1CN(C(=O)C3CC3)C1)C2=O` [compound 169, 3-{[1-(Cyclopropylcarbonyl)azetidin-3-yl]methyl}-8-(1-methylethyl)-2-[4-(1-methyl-1H-indazol-5-yl)phenyl]-1,3,8-triazaspiro[4.5]dec-1-en-4-one], the inhibition at 10 µM was 45.7% and the IC50 is greater than 10000 nM.

As to `Cn1ncc2cc(-c3ccc(C4=NC5(CCN(CCO)CC5)C(=O)N4CC4CN(C(=O)C5CC5)C4)cc3)ccc21` [compound 170, 3-{[1-(Cyclopropylcarbonyl)azetidin-3-yl]methyl}-8-(2-hydroxyethyl)-2-[4-(1-methyl-1H-indazol-5-yl)phenyl]-1,3,8-triazaspiro[4.5]dec-1-en-4-one], the inhibition at 10 µM came out at 55.6% and the IC50 was 7940 nM.
